In series [1] the test system is soluble epoxide hydrolase (sEH). Put plainly: Fluorescent assay for mouse and human soluble epoxide hydrolase (CMNPC substrate). Format: biochemical. To be noted: recombinant sEH, species (mouse or human) not given. From the text:
Fluorescent Assay for Mouse and Human Soluble Epoxide Hydrolase
Recombinant mouse sEH (MsEH) and human sEH (HsEH) were produced in a baculovirus expression system as previously reported. Grant et al., J. Biol. Chem., 268:17628-17633 (1993); Beetham et al., Arch. Biochem. Biophys., 305:197-201 (1993). The expressed proteins were purified from cell lysate by affinity chromatography. Wixtrom et al., Anal. Biochem., 169:71-80 (1988). Protein concentration was quantified using the Pierce BCA assay using bovine serum albumin as the calibrating standard. The preparations were at least 97% pure as judged by SDS-PAGE and scanning densitometry. They contained no detectable esterase or glutathione transferase activity which can interfere with the assay. The assay was also evaluated with similar results in crude cell lysates or homogenate of tissues.
The IC50s for each inhibitor were according to the following procedure:
Cyano(2-methoxynaphthalen-6-yl)methyl (3-phenyloxiran-2-yl)methyl carbonate (CMNPC; Jones P. D. et. al.; Analytical Biochemistry 2005; 343: pp. 66-75)
Bis/Tris HCl 25 mM pH 7.0 containing 0.1 mg/mL of BSA (buffer A)
CMNPC at 0.25 mM in DMSO.
Mother solution of enzyme in buffer A (Mouse sEH at 6 μg/mL and Human sEH at 5 μg/mL). Inhibitor dissolved in DMSO at the appropriate concentration.
In a black 96 well plate, fill all the wells with 150 μL of buffer A. Add 2 μL of DMSO in well A2 and A3, and then add 2 μL of inhibitor solution in A1 and A4 through A12. Add 150 μL of buffer A in row A, then mix several time and transfer 150 μL to row B. Repeat this operation up to row H. The 150 μL removed from row H go to the trash. Add 20 μL of buffer A in column 1 and 2, then add 20 μL of enzyme solution to column 3 to 12. Incubate the plate for 5 minutes in the plate reader at 30° C. During incubation prepare the working solution of substrate by mixing 3.68 mL of buffer A (4×0.920 mL) with 266 μL (2×133 μL) of substrate solution). At t=0, add 30 μL of working substrate solution with multi-channel pipette labeled “Briggs 303” and start the reading ([S]final: 5 μM). Read with ex: 330 nm (20 nm) and em: 465 nm (20 nm) every 30 second for 10 minutes. The velocities are used to analyze and calculate the IC50s.

One may read the melting point as the temperature, or range, at which the solid turns liquid. Turning to `O=C(Nc1ccc(Cl)cc1)Nc1ccc2[nH]c(C(F)(F)F)nc2c1` [Compound 4, 1-(4-chlorophenyl)-3-(2-(trifluoromethyl)-1H-benzo[d]imidazol-5-yl)urea], the melting point lay within 264 to 268 °C. The “% Inh” value in series [1] (compound concentration 500 nM) stood at 91%.
`O=C(Nc1ccc(C(F)(F)F)cc1)Nc1ccc2[nH]c(C(F)(F)F)nc2c1` [Compound 14, 1-(2-(trifluoromethyl)-1H-benzo[d]imidazol-5-yl)-3-(4-(trifluoromethyl)phenyl)urea] gave a melting point of 223 to 228 °C. Besides, in series [1] (compound concentration 50 nM), the “% Inh” value is reported as 80%.
On to `O=C(Nc1ccc2[nH]c(C(F)(F)F)nc2c1)NC12CC3CC(CC(C3)C1)C2` [Compound 15, 1-adamantan-1-yl-3-(2-(trifluoromethyl)-1H-benzo[d]imidazol-5-yl)urea], for which the melting point was 189 to 192 °C. For the same compound, the “% Inh” value in series [1] (compound concentration 500 nM) is listed as 93%.
The compound `O=C(Nc1ccc(C(F)(F)F)cc1)Nc1ccc2ncccc2c1` [Compound 1, 1-(quinolin-6-yl)-3-(4-(trifluoromethyl)phenyl)urea] showed a melting point of 259 to 263 °C. For the same compound, the “% Inh” value in series [1] (compound concentration 2000 nM) is listed as 98%.
The compound `Cc1nc2cc(NC(=O)NC34CC5CC(CC(C5)C3)C4)ccc2s1` [Compound 13, 1-adamantan-1-yl-3-(2-methylbenzo[d]thiazol-5-yl)urea] came in with a melting point of 209 to 214 °C. For the same compound, in series [1] (compound concentration 50 nM), the “% Inh” value was 92%.
In turn, `Cn1ncc2cc(NC(=O)Nc3ccc(C(F)(F)F)cc3)ccc21` [Compound 8, 1-(1-methyl-1H-indazol-5-yl)-3-(4-(trifluoromethyl)phenyl)urea] had a melting point of 252 to 254 °C. Also, the “% Inh” value in series [1] (compound concentration 50 nM) was 92%.
On to `O=C(Nc1cccc(C(F)(F)F)c1)Nc1ccc2c(c1)OC(F)(F)O2` [Compound 5, 1-(2,2-difluorobenzo[d][1,3]dioxol-5-yl)-3-(3-(trifluoromethyl)phenyl)urea], for which, in series [1] (compound concentration 500 nM), the “% Inh” value amounted to 89%.
`Cc1cc2cc(NC(=O)NC34CC5CC(CC(C5)C3)C4)ccc2[nH]1` [Compound 9, 1-adamantan-1-yl-3-(2-methyl-1H-indol-5-yl)urea]: the melting point fell in the range of 146 to 152 °C. In series [1] (compound concentration 50 nM), the “% Inh” value was 85%.
For the compound `O=C(Nc1cccc(C(F)(F)F)c1)Nc1ccc2nc(C(F)(F)F)[nH]c2c1` [Compound 16, 1-(2-(trifluoromethyl)-1H-benzo[d]imidazol-5-yl)-3-(3-(trifluoromethyl)phenyl)urea], the melting point lay within 213 to 215 °C. The “% Inh” value in series [1] (compound concentration 500 nM) amounted to 85%.
Regarding `Cc1nc2cc(NC(=O)Nc3ccc(C(F)(F)F)cc3)ccc2o1` [Compound 11, 1-(2-methylbenzo[d]oxazol-5-yl)-3-(4-(trifluoromethyl)phenyl)urea], the melting point lay within 240 to 243 °C. For the same compound, the “% Inh” value in series [1] (compound concentration 50 nM) is 98%.
Turning to `Cc1cc2cc(NC(=O)Nc3ccc(Cl)cc3)ccc2[nH]1` [Compound 6, 1-(4-chlorophenyl)-3-(2-methyl-1H-indol-5-yl)urea], the melting point lay in the range of 257 to 260 °C. Further, the “% Inh” value in series [1] (compound concentration 50 nM) was determined as 89%.
Regarding `O=C(Nc1ccc(C(F)(F)F)cc1)Nc1ccc2c(c1)COC2=O` [Compound 18, 1-(1-oxo-1,3-dihydroisobenzofuran-5-yl)-3-(4-(trifluoromethyl)phenyl)urea], the “% Inh” value in series [1] (compound concentration 50 nM) is given as 87%.
`O=C(Nc1cccc(C(F)(F)F)c1)Nc1ccc2c(c1)COC2=O` [Compound 17, 1-(1-oxo-1,3-dihydroisobenzofuran-5-yl)-3-(3-(trifluoromethyl)phenyl)urea] had a melting point of 279 to 282 °C. Further, the “% Inh” value in series [1] (compound concentration 50 nM) was found to be 86%.
In the case of `O=C(Nc1ccc2c(c1)OCCO2)NC12CC3CC(CC(C3)C1)C2` [Compound 2, 1-adamantan-1-yl-3-(2,3-dihydrobenzo[b][1,4]dioxin-6-yl)urea], in series [1] (compound concentration 2000 nM), the “% Inh” value amounted to 98%.
In turn, `Cc1nc2cc(NC(=O)Nc3cccc(C(F)(F)F)c3)ccc2o1` [Compound 12, 1-(2-methylbenzo[d]oxazol-5-yl)-3-(3-(trifluoromethyl)phenyl)urea] returned a melting point of 184 to 186 °C. The “% Inh” value in series [1] (compound concentration 500 nM) worked out at 93%.
As to `O=C(Nc1ccc(C(F)(F)F)cc1)Nc1ccc2c(c1)OC(F)(F)O2` [Compound 3, 1-(2,2-difluorobenzol[d][1,3]dioxol-5-yl)-3-(4-(trifluoromethyl)phenyl)urea], the melting point was 195 to 200 °C. Further, the “% Inh” value in series [1] (compound concentration 50 nM) stood at 91%.
In the case of `O=C(Nc1ccc(Cl)cc1)Nc1ccc2c(c1)OC(F)(F)O2` [Compound 7, 1-(4-chlorophenyl)-3-(2,2-difluorobenzo[d][1,3]dioxol-5-yl)urea], the melting point fell in the range of 231 to 233 °C. For the same compound, the “% Inh” value in series [1] (compound concentration 50 nM) was determined as 95%.
As for `O=C(Nc1ccc2c(c1)OC(F)(F)O2)NC12CC3CC(CC(C3)C1)C2` [Compound 10, 1-adamantan-1-yl-3-(2,2-difluorobenzo[d][1,3]dioxol-5-yl)urea], the melting point lay within 213 to 215 °C. In addition, the “% Inh” value in series [1] (compound concentration 50 nM) is 99%.
